Measurements from paper PMC3140574 (Journal of immunology (Baltimore, Md. : 1950), 2011).
Where a SMILES comes first, the peptide text is derived from it.

Key:
[1] = molecular target: HLA-A*0201 (Homo sapiens, UniProt P04439, D140Y/D185E/D98H/E176V/E277Q/G131W/G231S/I119V/I121R/I166T/I218V/L300P/L318F/N151K/N90K/P208A/P217A/Q86G/Q94H/R138H/R169H/T345S); assay: HLA-A*0201-peptide binding
[2] = system: splenocytes of ML1419c p113-121 immunized HLA-A2tg mice; type: cell-based

## CC(C)C[C@H](NC(=O)[C@@H](NC(=O)[C@@H](NC(=O)CNC(=O)[C@H](CC(=O)O)NC(=O)[C@H](CC(C)C)NC(=O)[C@@H](N)CCCNC(=N)N)[C@@H](C)O)[C@@H](C)O)C(=O)N[C@@H](CCC(=O)O)C(=O)N[C@H](C(=O)O)C(C)C [ML1419c p113-121, RLDGTTLEV] (H-RLDGTTLEV-OH)
[1]
  IC50: 35 nM

## concanavalin A [conA]
[2]
  IFN-γ: 5112 pg/mL
  IL-6: 299 pg/mL
  IP-10: 251 pg/mL
  MIG: 533 pg/mL
  MIP-β: 787 pg/mL
  TNF-α: 33 pg/mL
  VEGF: 83 pg/mL
